Five compounds from US20230248835A1, “COMPOUNDS, COMPOSITIONS, AND METHODS FOR THE TREATMENT OF FIBROTIC DISEASES AND CANCER” (Purdue Research Foundation, priority 2020, published 2023) can be followed below.

Assay [1] relates to human peripheral blood mononuclear cells (PBMCs). As to the kind of experiment: IL-6 production in human PBMCs treated with TLR7 agonists (ELISA). It is filed as cell-based. The conditions noted are these: 24 hours, compared to control Compound A (TLR7-1), FIG. 2. The protocol: To evaluate the efficacy of TLR-7 agonists, Compounds 1 (TLR7-1A), 2 (TLR7-1B) and 3 (TLR7-1C) were treated with human peripheral blood mononuclear cells (PBMCs) for 24 hours and cytokine production was thereafter assessed. Human PBMCs were isolated from healthy donors by density gradient centrifugation following standard procedure. 18 mL of blood were diluted with 2% fetal bovine serum (FBS) in phosphate-buffered saline (PBS) (1:1 dilution) and transferred slowly into a 50 mL SepMate™ PBMC isolation tube containing 12 mL of Ficoll-Paque®. The tube was centrifuged at 1200 g for 10 minutes and PBMCs were transferred into a fresh 50 mL tube.
PBMCs were washed with 2×50 mL of 2% FBS in PBS and plated in 96 well plate at a density of 2×10^5 cells/200 μL RPMI medium. This was treated with different concentrations of TLR7 agonist for 24 hours.
Compound A (TLR7-1) was used as control. Cell culture supernatants were isolated and cytokine levels were calculated using an enzyme-linked immunosorbent assay (ELISA) kit (FIG. 2).
In general terms: ELISA stands for enzyme-linked immunosorbent assay.

Assay [2] concerns human primary monocyte derived M2-macrophages. Description: Cytokine induction in human primary monocyte derived M2-macrophages. It is filed as cell-based. To be noted: 48 hours; for induction of interleukin-6 (IL-6): compared to parent compound TLR7-1, FIG. 3A; for induction of C-X-C motif chemokine ligand 10 (CXCL-10): compared to parent compound TLR7-1, FIG. 3B; for polarization of M2 macrophages to M1 macrophages: shown by increased M1 markers IL-6 and CXCL10.

Assay [3] has as its system mouse bone marrow-derived M2-macrophages. As to the kind of experiment: Macrophage polarization in mouse bone marrow-derived M2 macrophages (ELISA). It counts as cell-based. The conditions noted are these: 48 hours. How it is done: Bone marrow cells were isolated from tibias and femurs of male C57BL/6 mice and were differentiated to macrophages with mouse M-CSF (20 ng/mL). The macrophages were then polarized to M2 phenotype with 20 ng/mL of […] for 48 hours. Interferon-γ (IFN-γ), interleukin-4 (IL-4), and interleukin-13 (IL-13) were obtained from Biolgend (San Diego, Calif.). Lipopolysaccharide (LPS) was purchased from Sigma-Aldrich (St. Louis, Mo.).
The resulting M2 macrophages were then incubated with varying concentrations of Resiquimod, GSK2245035, Compound 1, Compound 2, and Compound 3 for 48 hours. Supernatant was harvested and cytokines were analyzed using ELISA. (Resiquimod and GSK2245035 are known TLR7 agonists.)

Assay [4] in a line: Systemic cytokine release in healthy mice after tail vein injection. To be noted: healthy Balb/c mice, 10 nmol tail vein, 1 hour or 1.5 hours after treatment. It counts as in vivo. An excerpt: Female Balb/c mice were purchased from Charles Rivers, housed in a sterile environment on a standard 12-hour light-dark cycle, and maintained on a folate-deficient diet. All animal procedures were approved by the Purdue Animal Care and Use Committee in accordance with National Institutes of Health guidelines.
Healthy mice were tail vein injected with 10 nmol Compound A (TLR7-1) or Compound 1 (TLR7-1A), and peripheral blood was collected at indicated time points after drug injection. (FIGS. 3C and 3D). The effect of drug on plasma levels of IL-6 (FIG. 3C), and tumor necrosis factor alpha (TNF-α) (FIG. 3D) was determined at 1 hour or 1.5 hours after treatment. Both Compounds A and 1 stimulated systemic cytokine release in healthy mice.

The next assay deals with 4T1 metastatic tumor. As to the kind of experiment: 4T1 metastatic tumor model, lung metastatic colony formation (6-thioguanine assay). The conditions noted are these: Balb/c mice, 50 nmole/kg intravenously once/week. It is filed as in vivo. How it is done: Additional 4T1 solid tumor metastatic studies were also performed. There, lung metastatic colony formation assay was carried out following the reported procedure (Cresswell et al., Folate receptor beta designates immunosuppressive tumor-associated myeloid cells that can be reprogrammed with folate-targeted drugs, Cancer Research 2021, 81(3), 671-684). 6-8 weeks old Balb/c mice were implanted with 50,000 4T1 cells in the mammary fat pad and tumors were allowed to grow until they reached ˜50 mm^3. Mice were then injected intravenously with 100 μl of Folate-TLR7 conjugate (Compound 4) (50 nmole/kg) once/week. The control group received an equal volume of PBS on the same schedule. At the end of the treatment, metastasis in lung was evaluated in disease control and treatment group by co-culturing lung-digested cells with 6-thioguanine ([…]) in complete RPMI-1640 media for 10 days in petri plates. Metastatic colonies were visualized by fixing the plates with 5 mL of methanol followed by 5 mL deionized water wash and then stained with 0.03% methylene blue (see FIG. 15C). Total blue colonies from each plate were then counted.

Assay [5] has as its system human PBMC-derived M2 macrophages. As to the kind of experiment: Reprogramming of human PBMC-derived M2 macrophages by folate-TLR7 conjugates (qPCR, ELISA). It counts as cell-based. To be noted: increased M1 markers. The protocol: To evaluate the efficacy of the releasable and non-releasable conjugates, freshly isolated PBMCs were plated with monocyte attachment medium at a seeding density of 1 million cells/cm^2. This was incubated for about 2 hours at 5% CO2 and 37° C. in the incubator. Non-adherent cells were removed, and the monocytes were washed three times with warm monocyte attachment medium. The monocytes were cultured in folate deficient RPMI 1640 medium. This was differentiated into unpolarized macrophages by incubating with fresh RPMI medium containing 20 ng/mL of M-CSF supplemented with 1% penicillin streptomycin (Invitrogen, Carlsbad, Calif.) and 10% FBS.
After 3 days, the medium was replaced with fresh RPMI medium containing 20 ng/mL of M-CSF. […]
qPCR analyses were performed using the iTaq™ Universal SYBR Green SuperMix (Bio-Rad Laboratories, Inc., Hercules, Calif.; #1725121), iCycler thermocycler, and iCycler iQ 3.0 software (Bio-Rad Laboratories Inc., Hercules, Calif.) to track the expression of markers characteristic of macrophage polarization states. […] Each sample was analyzed independently in triplicate for each marker. IL-6, CXCL-10 and TNF-α protein expression in the cell culture supernatants were calculated using the commercially available ELISA kits (Biolegend, San Diego, Calif.).
Background: Real-time PCR tracks product formation cycle by cycle.

For assay [6] the test system is unchanged. As to the kind of experiment: Surface markers during macrophage polarization (flow cytometry). To be noted: 48 hours. It is filed as cell-based. The protocol: Human PMBC-derived M2 macrophages were treated with different concentrations of folate-TLR7 agonists (e.g., Compound 4) for 48 hours, and macrophage cells were detached using Accutase cell detachment Solution (Biolegend, San Diego, Calif.; #423201) and gently lifted with a cell scraper. Cells were washed with PBS and nonspecific binding was blocked by incubation with Fc receptor blocking solution (Biolegend, San Diego, Calif.) at room temperature for 10 minutes. The resulting single cell suspensions were stained for M2 macrophage marker CD206, and M1 macrophage markers CD80 and CD40. All the samples were then analyzed by flow cytometry.
(Flow cytometry measures light scatter and fluorescence of single cells or particles in a stream.)

For another assay, the system named is 4T1 solid tumor. As to the kind of experiment: 4T1 solid tumor model in mice. It counts as in vivo. To be noted: BalB/c mice; for polarization of the macrophages from M2 to M1 phenotype in tumor: 4T1 solid tumors, flow cytometry; for tumor size: subcutaneous 4T1, intravenous, Compound 5 10 nmol/mouse, Compound 4 different concentrations. How it is done:
In additional in vivo studies, 6-8 week old female BalB/c mice (Charles River Laboratories International, Inc., Wilmington, Mass.) were transferred upon arrival to a folic acid-deficient diet (TD.95247, Envigo Corporation, Indianapolis, Ind.). On day 14, mice were implanted subcutaneously with 5.0×10^4 of 4T1 cells and tumors were allowed to grow until they reach ˜50 mm^3. Mice were then injected intravenously with different concentrations of 100 μl of Folate-TLR7 conjugate Compounds 4 or 10 nmol/mouse of Compound 5). Control groups received 100 μl of 3% DMSO in PBS on the same schedule.
Tumor volume was concurrently measured with calipers using the formula (a×b^2)/2 (a being the largest and b being the smallest diameter of the tumor) (see FIGS. 10A, 10B, and 14). When desired, mice were sacrificed, and derived tumor fragments were dissociated using a human tumor dissociation kit. The resulting single cell suspensions were stained for antibodies and the samples were then analyzed by flow cytometry. Percentage of CD4 and CD8 T cell populations were tested in live cells isolated from 4T1 solid tumors in groups of untreated control and Folate-TLR7 conjugate treatment groups.

On to `CCCCc1nc2c(N)nc3ccccc3c2n1CC(C)(C)N` [Compound 3, 1-(2-amino-2-methylpropyl)-2-butyl-1H-imidazo[4,5-c]quinolin-4-amine], for which the “expression of IL-6 in PBMCs” value in assay [1] was “increased”. In assay [2], the “induction of interleukin-6 (IL-6)” value is “more efficiently”, the “induction of C-X-C motif chemokine ligand 10 (CXCL-10)” value (“induction … (CXCL-10)” for short) is given as “more efficiently” and the “polarization of M2 macrophages to M1 macrophages” value (“polarization of M2 macrophages” below) is “polarize the M2 macrophages to M1 macrophages”.

Turning to `CCCCc1nc2c(N)nc3ccccc3c2n1CC(C)(C)CO` [Compound 1, 3-(4-amino-2-butyl-1H-imidazo[4,5-c]quinolin-1-yl)-2,2-dimethylpropan-1-ol], in assay [3] (supernatant ELISA, FIG. 4A), the “M1 marker IL-6” value is on record as “increase”. The “M1 marker TNF-α” value in assay [3] (supernatant ELISA, FIG. 4B) is listed as “increase”. In assay [3] (varying concentrations, FIGS. 4A and 4B), the “polarization of macrophages from M2 to M1 phenotype” value was “efficiently polarized”. For the same compound, the “expression of IL-6 in PBMCs” value in assay [1] was “increased”. Moreover, the “systemic cytokine release (plasma IL-6, TNF-α)” value in assay [4] is recorded as “stimulated”. In assay [2], the “induction of interleukin-6 (IL-6)” value is recorded as “more efficiently”, the “induction … (CXCL-10)” value is “more efficiently” and the “polarization of M2 macrophages” value was “polarize the M2 macrophages to M1 macrophages”.

Turning to `CCCCc1nc2c(N)nc3ccccc3c2n1CC(C)(C)COCCOCCOCCOCCNC(=O)CC[C@H](NC(=O)c1ccc(NCc2cnc3nc(N)[nH]c(=O)c3n2)cc1)C(=O)O` [Compound 4, (S)-1-(4-amino-2-butyl-1H-imidazo[4,5-c]quinolin-1-yl)-20-(4-(((2-amino-4-oxo-3,4-dihydropteridin-6-yl)methyl)amino)benzamido)-2,2-dimethyl-17-oxo-4,7,10,13-tetraoxa-16-azahenicosan-21-oic acid], in the assay on 4T1 metastatic tumor (6-thioguanine assay, FIG. 15B-C), the “number of metastatic colonies (lung)” value is reported as “significantly decreased”. Besides, the “volume of the tumor” value in the assay on 4T1 metastatic tumor (4T1 in mammary fat pad, FIG. 15A) is recorded as “significantly decreased”. For the same compound, the “polarization of M2 macrophages” value is on record as “polarized the M2 macrophages to M1 macrophages” in assay [5] (3 hours or 3+45 hours, FIGS. 11A-11D); “polarized the M2 macrophages to M1 macrophages” in assay [6] (FIGS. 12A and 12B). Besides, the “M1 surface marker CD40” value in assay [6] (FIG. 12A) is reported as “increased”. In addition, the “M1 surface marker CD80” value in assay [6] (FIG. 12B) is given as “increased”. In addition, the “polarization of the macrophages from M2 to M1 phenotype in tumor” value in the assay with 4T1 solid tumor is reported as “shifted polarization of the macrophages from M2 to M1 phenotype”. The tumor size result in the assay on 4T1 solid tumor is recorded as “reduction”.

`CCCCc1nc2c(N)nc3ccccc3c2n1CC(C)(C)COC(=O)OCCSSC[C@H](NC(=O)CCOCCOCCOCCNC(=O)CC[C@H](NC(=O)c1ccc(NCc2cnc3nc(N)[nH]c(=O)c3n2)cc1)C(=O)O)C(=O)O` [Compound 5]: the “polarization of M2 macrophages” value in assay [5] (3+45 hours, FIG. 9) was “polarized the M2 macrophages to M1 macrophages”. Also, in the assay with 4T1 solid tumor, the “polarization of the macrophages from M2 to M1 phenotype in tumor” value was “shifted polarization of the macrophages from M2 to M1 phenotype” and the tumor size result is on record as “reduction”.

On to `CCCCc1nc2c(N)nc3ccccc3c2n1CC(C)(C)CN` [Compound 2, 1-(3-amino-2,2-dimethylpropyl)-2-butyl-1H-imidazo[4,5-c]quinolin-4-amine], for which the “expression of IL-6 in PBMCs” value in assay [1] was “increased”. Further, in assay [2], the “induction of interleukin-6 (IL-6)” value is on record as “more efficiently”, the “induction … (CXCL-10)” value is reported as “more efficiently” and the “polarization of M2 macrophages” value is on record as “polarize the M2 macrophages to M1 macrophages”.
